Test results as given in patent publication USRE39682E1, “Farnesyl derivatives and pharmaceutical compositions containing them” (Ramot at Tel Aviv University Ltd., priority 1993, dated 2007).

How the values were obtained:
[1] = system: V-raf transformed 3T3 cells; experiment: Growth of V-raf transformed cells; assay type: cell-based; conditions: 25 μM
Excerpt: The cell lines employed were rat1, -EJ, which are rat1 cells stably expressing Val- 12 activated human Ha-ras gene (Land H. et al., Nature, 304, 596-602, (1983)); V-raf-3T3, which are 3T3 cells stably expressing the V-raf gene (Xu, N., et al., Proc. Natl. Acad. Sci., 90, 6741-6745); RB-22, which are 3T3 cells stably expressing the rat Erb-B2 gene (Peles, et al., EMBO J., 10, 2077-2086 (1991)) CO6O cells (SV40-CHO), which are CHE cells stably expressing the SV-40 T-antigen gene (Lavi, Proc. Natl. Acad. Sci., 78, 6144-6148 (1981)); human endometrial carcinoma cell line HEC1A, which are cells that express activated K-ras (Enomoto T., Cancer Res., 50, 6139-6145; mouse B16F10 melanoma cells, rat pheochromocytoma PC12 cells, […] cells CHE and COS cells.
HEC1A, V-raf-3T3 and SV40-CHE cells were grown in Dulbecco's modified Eagle medium (DMEM) containing 10% fetal calf serum (FCS), 4 mM L-glutamine, 10 μg/ml streptomycin and 10 U/ml penicillin. Rat1 and -EJ cells were grown in the same medium except that it was supplemented with 12.5 U/ml nyostatin. RB-22 cells were grown in modified DMEM (1 mM sodium pyruvate, 20 mM sodium bicarbonate)/10% FCS containing 4 mM L-glutamine, […] streptomycin, 10 U/ml penicillin. […]
The potent PPMTase inhibitor FTS was used to examine selectivity of the drugs towards ras-dependent growth-signaling pathways. […] Cells were counted on day 5 of the experiment.

C57 black mice = experiment: In vivo toxicity, repeated s.c. or i.p. injection; conditions: 0.21 mg/kg s.c. or i.p. every 3 days for 2 weeks
Experimental: Toxicity tests in intact animals were performed with C57 black and with bulb-C mice.
Four groups, each comprising 9 mice, were used. Animals of group one received 100 μl s.c. injections of 150 μM FTS in salient solution containing 1% DMSO (0.21 mg drug/kg body weight). The drug was injected every 3 days for 2 weeks. Group two, which served as controls, received the solvent/saline solution for the same period of time.

Structure (SMILES): CC(C)=CCC/C(C)=C/CC/C(C)=C/CSc1ccccc1C(=O)O [FTS, (3,7,11-trimethyl-dodeca-2,6,10-trienyl)-2-thiobenzoic acid]
- effect on growth of V-raf transformed cells [1]: no effects
- Number of cells (% of control) ([1]; Y-ref transformed 3T2, day 5): 93 ± 8 % of control
- deaths out of the 18 drug treated animals (C57 black mice): one
